Molecular target: T1, CXCR7 (Homo sapiens, UniProt P25106)
T1 construct: host or cells: CHO-K1 (PathHunter CHO-K1 CXCR7 b-arrestin cell line, stably transfected)
Assay: PathHunter CHO-K1 CXCR7 b-arrestin recruitment assay (CXCR7 agonistic activity)
Format: cell-based
Conditions: PathHunter CHO-K1 CXCR7 b-arrestin cell line
Outline: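 Stable CHO-K1 line with C-terminally ProLink-tagged CXCR7 and β-arrestin 2–EA fusion; β-arrestin recruitment restores β-gal activity, read by chemiluminescence after 1 h RT detection. Cells seeded 24 h, starved in OPTIMEM 3–4 h, exposed to compounds 90 min at 37 °C in HBSS/HEPES/BSA. Geometric-mean EC50 from repeated measurements.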

T1 sequence (P25106 whole entry): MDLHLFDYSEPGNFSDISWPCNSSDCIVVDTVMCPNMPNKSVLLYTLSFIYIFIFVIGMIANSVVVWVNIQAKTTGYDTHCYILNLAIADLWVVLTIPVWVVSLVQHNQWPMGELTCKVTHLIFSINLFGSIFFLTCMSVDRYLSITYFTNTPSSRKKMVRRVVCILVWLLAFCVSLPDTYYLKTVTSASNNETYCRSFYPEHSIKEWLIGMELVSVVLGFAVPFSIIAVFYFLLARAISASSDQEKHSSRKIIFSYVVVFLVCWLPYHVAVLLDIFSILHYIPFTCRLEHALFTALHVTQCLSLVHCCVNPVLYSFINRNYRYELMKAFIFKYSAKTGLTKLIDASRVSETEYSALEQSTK
T1 sequence (P32121 whole entry partner): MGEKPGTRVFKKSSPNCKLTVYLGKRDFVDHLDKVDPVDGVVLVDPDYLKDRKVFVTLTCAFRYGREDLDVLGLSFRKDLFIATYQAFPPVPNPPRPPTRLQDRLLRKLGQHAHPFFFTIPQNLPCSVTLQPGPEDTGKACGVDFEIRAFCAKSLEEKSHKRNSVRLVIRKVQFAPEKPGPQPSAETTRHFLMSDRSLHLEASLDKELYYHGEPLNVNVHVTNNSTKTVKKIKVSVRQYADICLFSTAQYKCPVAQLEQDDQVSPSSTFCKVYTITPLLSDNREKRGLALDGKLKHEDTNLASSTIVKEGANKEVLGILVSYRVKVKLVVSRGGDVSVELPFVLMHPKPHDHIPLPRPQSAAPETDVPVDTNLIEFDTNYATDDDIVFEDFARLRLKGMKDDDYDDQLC

EC50 [nM]	SMILES
148	CNCCN(Cc1ncccc1C(F)(F)F)C(=O)CNc1cccc2c1CCN(C(=O)CC(C)(C)C)C2 [compound 418]
37	CCC(=O)N1CCc2c(cccc2NCC(=O)N(CCCN(C)C)Cc2ccccc2)C1 [Example 13, N-Benzyl-N-(3-dimethylamino-propyl)-2-(2-propionyl-1,2,3,4-tetrahydro-isoquinolin-5-ylamino)-acetamide]
174	CCN1CCc2cccc(NCC(=O)N(CCN(C)C)Cc3ccc(Cl)cn3)c2C1 [compound 530]
249	CN1CCC(N(Cc2ccccc2C(F)(F)F)C(=O)/C=C/c2cccc3c2CCN(C(=O)OC(C)(C)C)C3)CC1 [Example 96, 5-{(E)-2-[(1-Methyl-piperidin-4-yl)-(2-trifluoromethyl-benzyl)-carbamoyl]-vinyl}-3,4-dihydro-1H-isoquinoline-2-carboxylic acid tert-butyl ester]
113	CCN1CCc2cccc(NCC(=O)N(CCc3ccccc3)CCN(C)C)c2C1 [compound 542]
8	CN(C)CCN(Cc1ncccc1Cl)C(=O)CNc1cccc2c1CN(CC1CC1)CC2 [compound 485, N-(3-Chloro-pyridin-2-ylmethyl)-2-(2-cyclopropylmethyl-1,2,3,4-tetrahydro-isoquinolin-8-ylamino)-N-(2-dimethylamino-ethyl)-acetamide]
235	CN1CCC(N(Cc2ccccc2C(F)(F)F)C(=O)CNc2cccc3c2CN(CC2CC2)CC3(C)C)CC1 [compound 200]
36	C=CCN1CCc2cccc(NCC(=O)N(CCN(C)C)Cc3ccccc3OC(F)(F)F)c2C1 [compound 464, 2-(2-Allyl-1,2,3,4-tetrahydro-isoquinolin-8-ylamino)-N-(2-dimethylamino-ethyl)-N-(2-trifluoromethoxy-benzyl)-acetamide]
350	CN(C)CCN(Cc1ccncc1)C(=O)CNc1cccc2c1CCN(CC1CC1)C2 [Example 268, 2-(2-Cyclopropylmethyl-1,2,3,4-tetrahydro-isoquinolin-5-ylamino)-N-(2-dimethylamino-ethyl)-N-pyridin-4-ylmethyl-acetamide]
1	CN(CCN(Cc1ccccc1C(F)(F)F)C(=O)CNc1cccc2c1CCN(CC1CC1)C2)C1CCC1 [Example 447, N-[2-(Cyclobutyl-methyl-amino)-ethyl]-2-(2-cyclopropylmethyl-1,2,3,4-tetrahydro-isoquinolin-5-ylamino)-N-(2-trifluoromethyl-benzyl)-acetamide]
107	CN(CCN(Cc1ccccc1Br)C(=O)CNc1cccc2c1CCN(CC1CC1)C2)C(=O)OC(C)(C)C [Example 235, (2-{(2-Bromo-benzyl)-[2-(2-cyclopropylmethyl-1,2,3,4-tetrahydro-isoquinolin-5-ylamino)-acetyl]-amino}-ethyl)-methyl-carbamic acid tert-butyl ester]
47	CCn1ccc(C(C)N(Cc2ccccc2C(F)(F)F)C(=O)CNc2cccc3c2CCN(CC2CC2)C3)n1 (racemic) [Example 80, rac-2-(2-Cyclopropylmethyl-1,2,3,4-tetrahydro-isoquinolin-5-ylamino)-N-[1-(1-ethyl-1H-pyrazol-3-yl)-ethyl]-N-(2-trifluoromethyl-benzyl)-acetamide]
24	CCNC(=O)N1CCc2c(cccc2NCC(=O)N(CCNC)Cc2ccccc2C(F)(F)F)C1 [compound 403, 5-({[(2-Methylamino-ethyl)-(2-trifluoromethyl-benzyl)-carbamoyl]-methyl}-amino)-3,4-dihydro-1H-isoquinoline-2-carboxylic acid ethylamide]
194	CCC(=O)N1CCc2c(cccc2NCC(=O)N(CCC(C)C)Cc2ccccc2)C1 [Example 12, N-Benzyl-N-(3-methyl-butyl)-2-(2-propionyl-1,2,3,4-tetrahydro-isoquinolin-5-ylamino)-acetamide]
56	CCN1CCc2cccc(NCC(=O)N(Cc3ccccc3)C3CCN(C)C3)c2C1 (racemic) [compound 512]
97	CCS(=O)(=O)N1CCc2c(cccc2NCC(=O)N(CCN(C)C)Cc2ccccc2C(F)(F)F)C1 [Example 103, N-(2-Dimethylamino-ethyl)-2-(2-ethanesulfonyl-1,2,3,4-tetrahydro-isoquinolin-5-ylamino)-N-(2-trifluoromethyl-benzyl)-acetamide]
45	CCN1CCc2c(cccc2NCC(=O)N(Cc2ccccc2C(F)(F)F)C2CCN(C)CC2)C1 [compound 137, 2-(2-Ethyl-1,2,3,4-tetrahydro-isoquinolin-5-ylamino)-N-(1-methyl-piperidin-4-yl)-N-(2-trifluoromethyl-benzyl)-acetamide]

EC50 [nM]	SMILES
13	O=C(/C=C/c1cccc2c1CCN(CC1CC1)C2)N(CCN1CCC(F)(F)CC1)Cc1ncccc1Cl [Example 334, (E)-N-(3-Chloro-pyridin-2-ylmethyl)-3-(2-cyclopropylmethyl-1,2,3,4-tetrahydro-isoquinolin-5-yl)-N-[2-(4,4-difluoro-piperidin-1-yl)-ethyl]-acrylamide]
9	CN1CCC(N(Cc2ccccc2C(F)(F)F)C(=O)CNc2cccc3c2CCN(CC2CC2)C3)CC1 [Example 105, 2-(2-Cyclopropylmethyl-1,2,3,4-tetrahydro-isoquinolin-5-ylamino)-N-(1-methyl-piperidin-4-yl)-N-(2-trifluoromethyl-benzyl)-acetamide]
13	CCCCN(C)CCN(Cc1ccccc1)C(=O)CNc1cccc2c1CCN(C(=O)CC)C2 [Example 31, N-Benzyl-N-[2-(butyl-methyl-amino)-ethyl]-2-(2-propionyl-1,2,3,4-tetrahydro-isoquinolin-5-ylamino)-acetamide]
32	CC(Oc1cccc2c1CCN(CC1CC1)C2)C(=O)N(CCN(C)C)Cc1ccccc1C(F)(F)F (racemic) [Example 350, rac-2-(2-Cyclopropylmethyl-1,2,3,4-tetrahydro-isoquinolin-5-yloxy)-N-(2-dimethylamino-ethyl)-N-(2-trifluoromethyl-benzyl)-propionamide]
5	CNCCN(Cc1ncccc1C(F)(F)F)C(=O)CNc1cccc2c1CCN(C(=O)C1CC1)C2 [compound 410, 2-(2-Cyclopropanecarbonyl-1,2,3,4-tetrahydro-isoquinolin-5-ylamino)-N-(2-methylamino-ethyl)-N-(3-trifluoromethyl-pyridin-2-ylmethyl)-acetamide]
8	C/C(=C\c1ccccc1)CN(CCN(C)C)C(=O)CNc1cccc2c1CCN(CC1CC1)C2 [Example 45, 2-(2-Cyclopropylmethyl-1,2,3,4-tetrahydro-isoquinolin-5-ylamino)-N-(2-dimethylamino-ethyl)-N-((E)-2-methyl-3-phenyl-allyl)-acetamide]
5	O=C(CNc1cccc2c1CCN(CC1CC1)C2)N(CCN1CCCC1)Cc1ccccc1 [Example 41, N-Benzyl-2-(2-cyclopropylmethyl-1,2,3,4-tetrahydro-isoquinolin-5-ylamino)-N-(2-pyrrolidin-1-yl-ethyl)-acetamide]
5	CN(C)CCN(Cc1ccccc1C(F)(F)F)C(=O)CNc1cccc2c1CCN(C(=O)c1ccco1)C2 [Example 572, N-(2-Dimethylamino-ethyl)-2-[2-(furan-2-carbonyl)-1,2,3,4-tetrahydro-isoquinolin-5-ylamino]-N-(2-trifluoromethyl-benzyl)-acetamide]
24	CC(C)(O)CN(Cc1ncccc1Cl)C(=O)CNc1cccc2c1CCN(CC1CC1)C2 [Example 251, N-(3-Chloro-pyridin-2-ylmethyl)-2-(2-cyclopropylmethyl-1,2,3,4-tetrahydro-isoquinolin-5-ylamino)-N-(2-hydroxy-2-methyl-propyl)-acetamide]
22	CCOC(=O)CN(Cc1ccccc1)C(=O)/C=C/c1cccc2c1CCN(CC1CC1)C2 [compound 144, {Benzyl-[(E)-3-(2-cyclopropylmethyl-1,2,3,4-tetrahydro-isoquinolin-5-yl)-acryloyl]-amino}-acetic acid ethyl ester]
3	CN(C)CCN(Cc1cccc(C(F)(F)F)n1)C(=O)CNc1cccc2c1CCN(CC1CC1)C2 [Example 46, 2-(2-Cyclopropylmethyl-1,2,3,4-tetrahydro-isoquinolin-5-ylamino)-N-(2-dimethylamino-ethyl)-N-(6-trifluoromethyl-pyridin-2-ylmethyl)-acetamide]
80	CNCCN(Cc1ccccc1C(F)(F)F)C(=O)CNc1cccc2c1CCN(C(=O)NC(C)(C)C)C2 [compound 406]
54	Cc1cc(CN(CCN(C)C)C(=O)CNc2cccc3c2CCN(CC2CC2)C3)no1 [Example 269, 2-(2-Cyclopropylmethyl-1,2,3,4-tetrahydro-isoquinolin-5-ylamino)-N-(2-dimethylamino-ethyl)-N-(5-methyl-isoxazol-3-ylmethyl)-acetamide]
63	CCC(=O)N1CCc2c(cccc2NCC(=O)N(CCN(C)C)Cc2ccccc2OC)C1 [Example 28, N-(2-Dimethylamino-ethyl)-N-(2-methoxy-benzyl)-2-(2-propionyl-1,2,3,4-tetrahydro-isoquinolin-5-ylamino)-acetamide]
35	CN(C)CCN(Cc1ncccc1C(F)(F)F)C(=O)CNc1cccc2c1CCN(C1CCOC1)C2 (racemic) [Example 365, rac-N-(2-Dimethylamino-ethyl)-2-[2-(tetrahydro-furan-3-yl)-1,2,3,4-tetrahydro-isoquinolin-5-ylamino]-N-(3-trifluoromethyl-pyridin-2-ylmethyl)-acetamide]
130	CC(C)CCN(Cc1ccccc1)C(=O)CNc1cccc2c1CCN(C)C2 [compound 132]

SMILES	EC50 [nM]
CN(C)CCN(Cc1ccccc1)C(=O)CNc1cccc2c1CCN(C(=O)Oc1ccccc1)C2 [compound 130]	390
CCC(=O)N1CCc2cccc(OCC(=O)N(CCN(C)C)Cc3ccccc3)c2C1 [Example 206, N-Benzyl-N-(2-dimethylamino-ethyl)-2-(2-propionyl-1,2,3,4-tetrahydro-isoquinolin-8-yloxy)-acetamide]	26

Reference: patent publication US9920010B2, “CXCR7 receptor modulators” (IDORSIA PHARMACEUTICALS LTD, priority 2013, dated 2018)
